Columns and labels:
[1] = tested on: Trypanosoma brucei bloodstream forms; test: Drug sensitivity assay, dose–response curves, T. brucei; assay type: cell-based; conditions: for EC50: bloodstream forms, mean, n ≥ 3; for T. brucei selectivity: relative to human BJ fibroblast EC50
Excerpt: (§1) Human fibroblasts, T. brucei, T. gambiense, P. falciparum, L. mexicana, and B. divergens were cultivated as described previously, and dose–response curves were obtained by their cultivation on 96 well plates in a 2-fold seriel dilution of the appropriate drug.

Human BJ Fibroblast = test: Drug sensitivity assay, dose–response curves, human BJ fibroblasts; assay type: cell-based; conditions: mean, n ≥ 3
Excerpt: as §1

[2] = tested on: Babesia divergens intracellular stages; test: Drug sensitivity assay, dose–response curves, B. divergens; assay type: cell-based
Excerpt: as §1

[3] = tested on: Plasmodium falciparum intracellular stages; test: Drug sensitivity assay, dose–response curves, P. falciparum; assay type: cell-based
Excerpt: as §1

[4] = tested on: Leishmania mexicana axenic amastigotes; test: Drug sensitivity assay, dose–response curves, L. mexicana; assay type: cell-based
Excerpt: as §1

[5] = tested on: Toxoplasma tachyzoites mitochondrion; test: Toxoplasma mitochondrial membrane potential (MitoTracker, cytometry and microscopy); assay type: cell-based, Toxoplasma gondii; conditions: 24 h at 3× EC50; for Mitotracker staining of T. gondii, microscopic observation: FCCP as uncoupler control
Procedure: We used the MitoTracker Deep Red FM fluorescent probe (Invitrogen) to assess the mitochondrial membrane potential in Toxoplasma tachyzoites. […] After another 24 h of culture at 37 °C and 5% CO2, Mitotracker labeling was performed as described in the protocol provided by the manufacturer, with a 45 min incubation at 37 °C and 5% CO2 of the reconstituted dye diluted to 1/1000 in culture medium. Parasites were then fixed for 30 min in 4% (w/v) PFA (diluted in PBS), washed twice in PBS, scraped, syringed (with a 25 G needle), filtered on a 40 μm membrane, and resuspended in 1 mL of PBS. Parasites were then analyzed with an Aurora spectral cytometer (Cytek), using a 633 nm excitation laser and a 665 nm detector. 10,000 events were recorded. Mean fluorescence was plotted against vehicle-treated culture parasites using Prism 8.0 (GraphPad Software), and statistical significance was determined using one-way ANOVA with Tukey’s multiple-comparison test. The experiment was performed for three biologically independent replicates. For the membrane depolarization control, parasites were treated with 10 μM FCCP for 30 min prior to and during incubation with the Mitotracker dye.
Intracellular parasites and the host cell monolayer were then fixed 24 h later with 4% (w/v) PFA (diluted in PBS) for 20 min, and after fixation, cells were permeabilized with 0.3% (v/v) Triton X-100 (diluted in PBS) for 10 min. Costaining with the anti-F1β ATPase mitochondrial marker was performed as described below.

[6] = tested on: T. brucei 427 bloodstream form mitochondria; test: Mitochondrial membrane potential in T. brucei (TMRE, flow cytometry); assay type: cell-based, Trypanosoma brucei; conditions: 24 h at 3× EC50
Procedure: The mitochondrial membrane potential of T. brucei 427 bloodstream form was assessed using the fluorescent probe TMRE (Thermo Fisher Scientific) as described in ref . […] Untreated cells and cells preincubated with a 50 μM CCCP uncoupler for 30 min were used as negative and positive controls, respectively. Approximately 1 × 10^6 cells were incubated with 60 nM TMRE for 30 min, washed 1× with sterile PBS, and 5,000 events were measured on a Guava EasyCyte 8HT flow cytometer (Luminex) using a 488 nm excitation laser and a 583/26 nm detector. Median fluorescence was plotted against an untreated culture using Prism 8.0 (GraphPad Software), and statistical significance was determined using RM one-way ANOVA with Geisser–Greenhouse correction. The experiment was performed in three biologically independent replicates.

[7] = tested on: Toxoplasma gondii tachyzoites (RH strain), intracellular stages; test: T. gondii lytic cycle plaque assay in HFF monolayers; assay type: cell-based
Procedure: T. gondii tachyzoites of the RH strain were routinely maintained through passages in a human foreskin fibroblasts (HFFs) monolayer (ATCC CRL-1634). HFFs and parasites were cultured in standard Dulbecco’s Modified Eagle Medium (DMEM), supplemented with 5% decomplemented fetal bovine serum (FBS), 2 mM L-glutamine, 100 U/mL penicillin, and 100 μg/mL streptomycin (Gibco) at 37 °C and with 5% CO2 in an incubator with a controlled atmosphere.
The lytic cycle of T. gondii tachyzoites was assessed by a plaque assay as described previously. Briefly, tachyzoites were allowed to invade monolayers of HFFs for 3 h before addition of the compounds or the DMSO vehicle and were subsequently cultivated for 7 days at 37 °C and 5% CO2. They were then fixed with 4% (w/v) paraformaldehyde (PFA, diluted in phosphate-buffered saline (PBS)) for 20 min and stained with a 0.1% crystal violet solution (V5265, Sigma-Aldrich), washed, and air-dried before imaging under an Olympus MVX10 microscope.
Figure S1. EC50 determination of selected compounds in Toxoplasma.
B) EC50 curves based on plaque
area measured from three independent plaque assays. Data are mean ± standard deviation. C)
vacuoles were counted for each con dition. Values represented are mean ± standard deviation of […]

[8] = tested on: Trypanosoma gambiense bloodstream forms; test: Drug sensitivity assay, dose–response curves, T. gambiense; assay type: cell-based
Excerpt: as §1

T. gondii mitochondrion = test: Toxoplasma immunofluorescence assay of organelle morphology; assay type: cell-based, Toxoplasma gondii; conditions: 24 h at 3× EC50; DFX at 60 nM
Procedure: For IFAs to assess organelle morphology, coverslips seeded with HFFs were infected with T. gondii tachyzoites, and 3 h later, compounds were added (at 3 times their respective EC50). Intracellular parasites and host cell monolayers were then fixed 24 h later with 4% (w/v) PFA (diluted in PBS) for 20 min. After fixation, cells were permeabilized with 0.3% (v/v) Triton X-100 (diluted in PBS) for 10 min. Coverslips were blocked with 2% (w/v) bovine serum albumin (BSA) for 1 h prior to immunolabeling with a primary antibody for 1 h. After 3 washes in PBS, a corresponding secondary antibody was incubated for 1 h. Coverslips were then incubated with 1 μg/mL of Hoechst stain for 5 min before 3 washes in PBS and, finally, mounted using Immu-Mount (Thermo Fisher) onto microscope slides. Primary antibodies used were prepared in 2% BSA (diluted in PBS) and used at the following concentrations: the apicoplast was stained using rabbit anti-PDH-E2 (1:500), the mitochondrion was stained using mouse anti-F1β ATPase (1:1000, gift of P. Bradley). Anti-mouse and anti-rabbit secondary antibodies were all from Thermo Fisher and were diluted at 1:4000. Image acquisition was performed with a Zeiss Axio Observer inverted microscope equipped with a Zeiss Axiocam 712 camera and 63×/1.4 or 100×/1.4 Oil Plan Achromat objectives. Images were processed with Zen Blue v3.6 software (Zeiss). Z-stack acquisitions were processed by a maximum-intensity orthogonal projection. Adjustments of brightness and contrast were applied uniformly, and paired images were acquired with the same exposure time. Quantifications of mitochondrial morphology were performed by microscopic observation of a series of at least 100 parasites, and data from three independent biological replicates was acquired and plotted using Prism 8.0 (GraphPad Software). Statistical significance was determined using one-way ANOVA with Tukey’s multiple-comparison test.

[9] = intracellular stages, mean, n ≥ 3

With `CC(=O)N(O)CCCCCNC(=O)CCC(=O)N(O)CCCCCNC(=O)CCC(=O)N(O)CCCCCN` [compound 16, deferoxamine, reference compound] as the compound, how does the EC50 ([1]; Trypanosoma brucei) read?
Its EC50 is > 25000 nM.

And the EC50 (Human BJ Fibroblast)?
The EC50 was > 25000 nM.

How did the EC50 [1] turn out when `CC(=O)N(O)CCCCCNC(=O)CCC(=O)N(O)CCCCCNC(=O)CCC(=O)N(O)CCCCCNCCCCCCCCCC[P+](c1ccccc1)(c1ccccc1)c1ccccc1` [compound 1, triphenylphosphine-C10-DFO] was run?
Its EC50 is 882 nM.

What about the EC50 (Human BJ Fibroblast) of the same compound?
Its EC50 is > 25000 nM.

What does the source list for `Oc1ccccc1-c1nc(-c2ccccc2O)n(CCCCCCCCCC[P+](c2ccccc2)(c2ccccc2)c2ccccc2)n1.[Br-]` [compound 11, triphenylphosphineBr-C10-norbenzoic-DFX]?
EC50 [2, 9]: 17.2 nM; B. divergens selectivity ([2]; relative to fibroblasts): 122; EC50 [1]: 5.5 nM; T. brucei selectivity [1]: > 300; EC50 [3, 9]: 238 nM; P. falciparum selectivity ([3]; relative to fibroblasts): 9; EC50 ([4]; axenic amastigotes, mean, n ≥ 3): 132 nM; L. mexicana selectivity ([4]; relative to fibroblasts): 16; EC50 (Human BJ Fibroblast): 2110 nM; Mitotracker staining of T. gondii, microscopic observation [5]: strong decrease in Mitotracker staining; mitochondrial membrane potential of T. brucei (relative to untreated) [6]: less than 50%; EC50 ([7]; intracellular stages, plaque assay in HFFs, 7 days, n ≥ 3): 5 nM; T. gondii selectivity ([7]; relative to fibroblasts): 422; EC50 ([8]; bloodstream forms, mean, n ≥ 3): 7.5 nM; T. gambiense selectivity ([8]; relative to fibroblasts): 282; morphology of the T. gondii mitochondrion (T. gondii mitochondrion): altered the morphology of the organelle

With `N#CC(C#N)=NNc1ccc(OC(F)(F)F)cc1` [FCCP, carbonyl cyanide p-trifluoromethoxyphenylhydrazone, reference compound] as the compound, how does the “Mitotracker staining of T. gondii, microscopic observation” value [5] read?
The value was “diffuse Mitotracker signal”.

Which EC50 [1] does the source give for `CC(=O)N(O)CCCCCNC(=O)CCC(=O)N(O)CCCCCNC(=O)CCC(=O)N(O)CCCCCN(CCCCCCCCCCCC[P+](c1ccccc1)(c1ccccc1)c1ccccc1)CCCCCCCCCCCC[P+](c1ccccc1)(c1ccccc1)c1ccccc1.Cl.[Cl-].[Cl-]` [compound 6, (triphenylphosphine-C12)2-DFO] here?
The EC50 was 73.1 nM.

What about the T. brucei selectivity [1] of the same compound?
The T. brucei selectivity was 50.

What about the EC50 (Human BJ Fibroblast) of the same compound?
Its EC50 is 3630 nM.

For “(tricylohexylphosphine-C10)2-DFO [compound 5]”, which EC50 [1] is on record?
The EC50 was 52 nM.

And the T. brucei selectivity [1]?
The T. brucei selectivity was 59.

And the EC50 (Human BJ Fibroblast)?
The EC50 was 3080 nM.

With `CC(=O)N(O)CCCCCNC(=O)CCC(=O)N(O)CCCCCNC(=O)CCC(=O)N(O)CCCCCN(CCCCCCCCCC[P+](c1ccccc1)(c1ccccc1)c1ccccc1)CCCCCCCCCC[P+](c1ccccc1)(c1ccccc1)c1ccccc1.[Cl-].[Cl-]` [compound 2, (triphenylphosphine-C10)2-DFO] as the compound, how does the EC50 [1] read?
The EC50 was 56.9 nM.

What about the T. brucei selectivity [1] of the same compound?
The T. brucei selectivity was 156.

And the EC50 (Human BJ Fibroblast)?
Its EC50 is 8910 nM.

Which EC50 [1] does the source give for “(tributylphosphine-C10)2-DFO [compound 4]” here?
The EC50 was 281 nM.

What about the T. brucei selectivity [1] of the same compound?
Its T. brucei selectivity is 10.

And the EC50 (Human BJ Fibroblast)?
Its EC50 is 2840 nM.

Which EC50 [1] does the source give for `CCCCCCCC[P+](CCCCCCCC)(CCCCCCCC)CCCCCCCCCCN(CCCCCCCCCC[P+](CCCCCCCC)(CCCCCCCC)CCCCCCCC)CCCCCN(O)C(=O)CCC(=O)NCCCCCN(O)C(=O)CCC(=O)NCCCCCN(O)C(C)=O.Cl.[Cl-].[Cl-]` [compound 8, (trioctylphosphine-C10)2-DFO] here?
The EC50 was 134 nM.

What about the T. brucei selectivity [1] of the same compound?
Its T. brucei selectivity is 22.

What about the EC50 (Human BJ Fibroblast) of the same compound?
Its EC50 is 2920 nM.

What does the source list for `CC(=O)N(O)CCCCCNC(=O)CCC(=O)N(O)CCCCCNC(=O)CCC(=O)N(O)CCCCCN(CCCCCCCCCC[P+](Cc1ccccc1)(Cc1ccccc1)Cc1ccccc1)CCCCCCCCCC[P+](Cc1ccccc1)(Cc1ccccc1)Cc1ccccc1.Cl.[Cl-].[Cl-]` [compound 7, (tribenzylphosphine-C10)2-DFO]?
EC50 [1]: 186 nM; T. brucei selectivity [1]: 14; EC50 (Human BJ Fibroblast): 2550 nM

What does the source list for `O=C(O)c1ccc(-n2nc(-c3ccccc3O)nc2-c2ccccc2O)cc1` [compound 17, deferasirox, reference compound]?
EC50 ([1]; Trypanosoma brucei): 8790 nM; EC50 (Human BJ Fibroblast): > 25000 nM; T. gondii mitochondrial membrane potential, flow cytometric quantification of Mitotracker labeling ([5]; DFX at 60 nM): no specific impact; morphology of the T. gondii mitochondrion (T. gondii mitochondrion): largely preserved

For “(triphenylphosphine-C10-triazole)2-DFO [compound 10]”, which EC50 [1] is on record?
Its EC50 is 134 nM.

And the T. brucei selectivity [1]?
The T. brucei selectivity was 31.

And the EC50 (Human BJ Fibroblast)?
The EC50 was 4130 nM.

Which EC50 [1] does the source give for `O=C(NCCCCCCCC[P+](c1ccccc1)(c1ccccc1)c1ccccc1)c1ccc(-n2nc(-c3ccccc3O)nc2-c2ccccc2O)cc1.[Cl-]` [compound 12, triphenylphosphine-C8-DFX] here?
Its EC50 is 35.8 nM.

What about the T. brucei selectivity [1] of the same compound?
Its T. brucei selectivity is 55.

What about the EC50 (Human BJ Fibroblast) of the same compound?
Its EC50 is 1970 nM.

With `O=C(NCCCCCC[P+](c1ccccc1)(c1ccccc1)c1ccccc1)c1ccc(-n2nc(-c3ccccc3O)nc2-c2ccccc2O)cc1.[Cl-]` [compound 13, triphenylphosphine-C6-DFX] as the compound, how does the EC50 [1] read?
Its EC50 is 49.8 nM.

And the T. brucei selectivity [1]?
Its T. brucei selectivity is 302.

And the EC50 (Human BJ Fibroblast)?
Its EC50 is 15000 nM.

“(dimethylphenylphosphine-C10)2-DFO [compound 9]” was tested. Which “decrease in antiparasitic activity compared with compound 2” value ([1]; T. brucei) did it give?
The value was ~20 fold.

What about the EC50 [1] of the same compound?
Its EC50 is 1150 nM.

And the EC50 (Human BJ Fibroblast)?
Its EC50 is > 25000 nM.

With (tributylamine-C10)2-DFO [compound 3] as the compound, how does the EC50 [1] read?
The EC50 was 73.6 nM.

What about the T. brucei selectivity [1] of the same compound?
Its T. brucei selectivity is 111.

What about the EC50 (Human BJ Fibroblast) of the same compound?
Its EC50 is 8140 nM.

— paper PMC12797238 (ACS Infectious Diseases, 2025)
